Laboratory results as given in US4450272A, “Antiatherosclerotic 1-piperazine-thicarboxamides” (American Cyanamid Company, priority 1982, dated 1984).

Key:
[1] = system: serum lipids (sterol, triglycerides); experiment: Ability to lower lipid levels in mammals (serum cholesterol and triglycerides in rats, 5 days in diet); format: in vivo, male rats COBS, CD, SD strain; conditions: male rats, oral, 0.1% compound in diet, vs control; for inhibition in vivo at 0.1 % in diet: Rattus norvegicus, 120 h, read-out: % Lowering of Serum Triglycerides
Procedure: The compounds were also tested for their ability to lower lipid levels in mammals. The compounds were administered orally admixed with diet to groups of four male rats COBS, CD, SD strain from Charles River Breeding Laboratories, Inc., Wilmington, Mass. A control group of eight rats was maintained on the diet alone; test groups were maintained on the diet plus the indicated percentage of test compound by weight. After 5 days treatment, serum cholesterol and triglyceride concentrations were determined by direct enzymatic procedures using a Centrifichem® System 400 autoanalyzer (Union Carbide Co.). Cholesterol concentrations were determined by the combined cholesterol esterase-cholesterol oxidase procedure of Roelschlau et. al., Zeit. Klin. Chem. Klin. Biochem., 12, 226 (1974). Triglycerides were determined by the combined method of lipase catalyzed hydrolysis of triglycerides to glycerol and free fatty acids [Bucolo, G. and David, H., Clin. Chem., 19, 476 (1973) and Wahlefeld, A. W., in "Methods of Enzymatic Analysis", Vol. 4, Bergmeyer, H. U., Editor, Academic Press, New York, N.Y. (1974), pp. 1831-1835] and the enzymatic oxidation of the glycerol which leads to the production of colored formazan [Stavropoulos, W. S. and Crouch, R. D., Clin. Chem., 20, No. 7, 857 (1974)]. […] Compounds which produce statistically significant lowering of either sterol or triglycerides are considered to be active.

[2] = target: T1, fatty acyl CoA:cholesterol acyl transferase (ACAT) (Rattus norvegicus, UniProt O70536); experiment: Inhibition of ACAT (fatty acyl CoA:cholesterol acyl transferase) in rat adrenal supernatant; format: biochemical; conditions: rat adrenals, final concentration 5.2 μg./ml., pH 7.4, 37° C.
T1 construct: The supernatant, containing the microsomal fraction, served as the source of the cholesterol-esterifying enzyme; from tissue; host or cells: rat adrenals, 1000 x g supernatant containing the microsomal fraction
T1 sequence (O70536 1-545): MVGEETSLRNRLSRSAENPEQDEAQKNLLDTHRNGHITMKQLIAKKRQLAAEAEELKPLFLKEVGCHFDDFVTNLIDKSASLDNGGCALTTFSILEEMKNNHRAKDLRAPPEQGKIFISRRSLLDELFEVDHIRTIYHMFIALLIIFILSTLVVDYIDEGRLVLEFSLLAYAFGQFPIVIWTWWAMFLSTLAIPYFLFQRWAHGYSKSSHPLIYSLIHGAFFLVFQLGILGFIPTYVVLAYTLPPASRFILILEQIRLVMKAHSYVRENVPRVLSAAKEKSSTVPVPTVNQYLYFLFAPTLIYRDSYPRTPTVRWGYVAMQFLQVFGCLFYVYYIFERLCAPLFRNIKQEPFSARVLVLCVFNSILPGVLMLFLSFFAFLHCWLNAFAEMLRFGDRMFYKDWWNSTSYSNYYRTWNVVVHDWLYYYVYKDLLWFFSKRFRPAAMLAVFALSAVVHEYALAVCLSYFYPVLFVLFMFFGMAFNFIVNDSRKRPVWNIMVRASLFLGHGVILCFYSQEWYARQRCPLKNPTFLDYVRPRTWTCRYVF
Procedure: Compounds were tested for their ability to inhibit ACAT according to the following procedure:
Rat adrenals were homogenized in 0.2 M monobasic potassium phosphate buffer, pH 7.4, and centrifuged at 1000 times gravity for 15 minutes at 5° C. The supernatant, containing the microsomal fraction, served as the source of the cholesterol-esterifying enzyme, fatty acyl CoA:cholesterol acyl transferase (ACAT). A mixture comprising 50 parts of adrenal supernatant, 10 parts of albumin (BSA) (50 mg./ml.), 3 parts of test compound (final concentration 5.2 μg./ml.) and 500 parts of buffer was preincubated at 37° C. for 10 minutes. After treatment with 20 parts of oleoyl CoA (^14 C -0.4 μCi) the mixture was incubated at 37° C. for 10 minutes. A control mixture, omitting the test compound, was prepared and treated in the same manner. The lipids from the incubation mixture were extracted into an organic solvent and separated by thin-layer chromatography. The cholesterol ester fraction was counted in a scintillation counter. This procedure is a modification of that described by Hashimoto, et. al., Life Scie., 12 (Part II), 1-12 (1973).
Compounds which produce a statistically significant inhibition of the ACAT enzyme are considered to be active.

aortic sterol content = experiment: Ability to decrease aortic sterol content without effecting serum sterol, cholesterol-fed cockerels; format: in vivo, Day-old-cockerels; design: key: Active: Compounds which produce statistically significant decreases in the aortic sterol content without having an effect on serum sterol are considered to be active; conditions: 525 mg. test compound and 20 g. cholesterol per kg. of diet, 14 days
Procedure: The compounds were further tested for their ability to decrease aortic sterol content without effecting serum sterol.
Day-old-cockerels were placed on diets consisting of pullet starter mash supplemented with either 20 g. cholesterol (control group) or 20 g. cholesterol and 525 mg. test compound (drug-treated group) per kg. of diet.
For the control diet 20 g. of cholesterol is dissolved in 200 ml. of chloroform, mixed into one kg. of pullet starter mash and then the chloroform is removed by evaporation.
For the drug-treatment group 525 mg. of the test compound is dissolved in 100 ml. of chloroform, mixed into a diet prepared as described above and then the chloroform is evaporated.
The cockerels were housed three per cage and given water and their respective diet ad libitum for 14 days. Blood was collected by cardiac puncture and the serum was saponified [Trinder, P., Analyst, 77, 321 (1952)] and extracted and the cholesterol content determined [Zlatkis, A. et. al., J. Lab. Clin. Med., 41, 486 (1953)]. The aortae were removed, cleaned of adventitial tissue and the sterol content determined according to the above procedures. Compounds which produce statistically significant decreases in the aortic sterol content without having an effect on serum sterol are considered to be active.

Compound	inhibition in vivo at 0.1 % in diet [1] [%]	inhibition at 5.2 µg/mL [2] [%]	Result (decrease of aortic sterol content without effect on serum sterol) (aortic sterol content)	% Lowering of Serum Sterol [1] [%]
S=C(Nc1c(Cl)cccc1Cl)N1CCN(c2cnccn2)CC1 [2',6'-Dichloro-4-(2-pyrazinyl)-1-piperazinethiocarboxanilide]	37	–	–	–
S=C(Nc1ccccc1Cl)N1CCN(c2cnccn2)CC1 [2'-Chloro-4-(2-pyrazinyl)-1-piperazinethiocarboxanilide]	49	–	–	–
Fc1ccccc1NC(=S)N1CCN(c2cnccn2)CC1 [2'-Fluoro-4-(2-pyrazinyl)-1-piperazinethiocarboxanilide]	21	–	–	–
S=C(Nc1ccc(Cl)cc1)N1CCN(c2cnccn2)CC1 [4'-Chloro-4-(2-pyrazinyl)-1-piperazinethiocarboxanilide]	49	31	–	–
N#Cc1ccc(NC(=S)N2CCN(c3cnccn3)CC2)cc1 [4'-Cyano-4-(2-pyrazinyl)-1-piperazinethiocarboxanilide]	55	–	Active	–
Fc1ccc(NC(=S)N2CCN(c3cnccn3)CC2)cc1 [4'-Fluoro-4-(2-pyrazinyl)-1-piperazinethiocarboxanilide]	37	–	–	–
CC(C)c1ccc(NC(=S)N2CCN(c3cnccn3)CC2)cc1 [4'-Isopropyl-4-(2-pyrazinyl)-1-piperazinethiocarboxanilide]	–	56	–	–
CCNC(=S)N1CCN(c2cnccn2)CC1 [N--Ethyl-4-(2-pyrazinyl)-1-piperazinethiocarboxamide]	–	–	Active	–
S=C(Nc1ccccc1)N1CCN(c2cnccn2)CC1 [N--Phenyl-4-(2-pyrazinyl)-1-piperazinethiocarboxamide]	52	–	Active	–
S=C(NC1CCCCC1)N1CCN(c2cnccn2)CC1 [N-Cyclohexyl-4-(2-pyrazinyl)-1-piperazinethiocarboxamide]	43	31	–	–
CCNC(=S)N1CCN(c2ccc3ccccc3n2)CC1 [N-Ethyl-4-(2-quinolyl)-1-piperazinethiocarboxamide]	–	48	–	–
CCNC(=S)N1CCN(c2cncc(OC)n2)CC1 [N-Ethyl-4-(6-methoxy-2-pyrazinyl)-1-piperazinethiocarboxamide]	38	40	–	–
CNC(=S)N1CCN(c2cnccn2)CC1 [N-Methyl-4-(2-pyrazinyl)-1-piperazinethiocarboxamide]	31	–	Active	–
S=C(NCCc1ccccc1)N1CCN(c2cnccn2)CC1 [N-Phenethyl-4-(2-pyrazinyl)-1-piperazinethiocarboxamide]	–	33	–	16
